From ChEMBL document CHEMBL1150192, “Tetracyclic Triterpenoids of the Fruit Coats of Azadirachta indica” (J Nat Prod, 1991)
Calls of active or inactive are those of the source.

What was measured:
Format in all cases: functional, organism-based
Salmonella paratyphi = assay: Antimicrobial activity against Salmonella paratyphi A; details: Salmonella enterica subsp. enterica serovar Paratyphi A
Staphylococcus = assay: Antimicrobial activity against Staphylococcus citreus
Bacillus pumilus = assay: Antimicrobial activity against Bacillus pumilus
Klebsiella pneumoniae = assay: Antimicrobial activity against Klebsiella pneumoniae
Salmonella = assay: Antimicrobial activity against Salmonella schottmuelleri
Proteus vulgaris = assay: Antimicrobial activity against Proteus vulgaris
Shigella sonnei = assay: Antimicrobial activity against Shigella sonnei
Escherichia coli = assay: Antimicrobial activity against Escherichia coli
Streptococcus pyogenes = assay: Antimicrobial activity against Streptococcus pyogenes
Serratia marcescens = assay: Antimicrobial activity against Serratia marcescens
[1] = system: Salmonella enterica subsp. enterica serovar Typhi str. CT18; assay: Antimicrobial activity against Salmonella typhi
Bacillus subtilis = assay: Antimicrobial activity against Bacillus subtilis
Shigella dysenteriae = assay: Antimicrobial activity against Shigella dysenteriae
[2] = system: Staphylococcus epidermidis; assay: Antimicrobial activity against Staphylococcus epidermidis
Staphylococcus aureus = assay: Antimicrobial activity against Staphylococcus aureus

Measured: Activity

CC(=O)O[C@@H]1C[C@H]2C(C)(C)C(=O)C=C[C@]2(C)[C@H]2CC[C@]3(C)C(=CC[C@H]3[C@@H](CO)C[C@H](O)C(=O)C(C)(C)O)[C@@]21C
inactive: all assays above
